Laboratory results from US20040167131A1, “Inhibitors of factor Xa and other serine proteases involved in the coagulation cascade” (Pfizer Inc., priority 2002, published 2004).
Like-named read-outs stand apart in the source and are kept apart here.

Columns and labels:
human factor Xa = target: T1, human factor Xa (Homo sapiens, UniProt P00742); experiment: Determination of Factor Xa IC50 (cleavage of fluorogenic substrate F-S2765); assay type: biochemical; details: for FxXa 30 pM, % @ 1 μM: compound @ 1 μM
T1 construct: purchased Enzyme Research Laboratories
Description: The ability of compounds to act as inhibitors of human factor Xa catalytic activity was assessed by determination of that concentration of test substance that inhibited by 50% (IC50) the ability of human factor Xa to cleave the fluorogenic substrate F-S2765 (N-α-Z-D-Arg-Gly-Arg-pNA HCl, California Peptide Research). […] The IC50 was determined at 3 pM and/or 30 pM concentrations of human factor Xa (Enzyme Research Laboratories). These concentrations were achieved by diluting a stock solution of human factor Xa in the appropriate amount of buffer containing 10 mM HEPES, 150 mM NaCl, and 0.1% BSA at pH 7.4 (HBSA buffer). Accordingly, 73 μL of the factor Xa/buffer solution was added to 2.5 μL of DMSO-reconstituted compound and incubated for 55 minutes at room temperature. After warming to 37° C. for am additional 5 minutes, 50 μL of rewarmed substrate was added and the IC50 determined by monitoring the increase in absorbance at 390 nm excitation/460 nm emission (455 nm cutoff) in a fluorometric plate reader or 30 minutes.

human plasma = experiment: Determination of Prothrombin Time (PT); assay type: biochemical; details: concentration required to increase the clotting time by 2-fold, human tissue thromboplastin
Description: The prothrombin time (PT) is a measure of extrinsic and common pathway factors. In this assays, human tissue thromboplastin is added to human plasma which activates pathway factors, including factor X activation to factor Xa, leading to clot formation. Significant inhibition of factor Xa, by a small molecule inhibitor, will reduce the conversion of prothrombin to thrombin and thereby increase the time to clot formation in this assay. The value 2 X PT is the concentration of the inhibitor required to increase the clotting time by 2-fold.

dog = details: adjunct to recombinant tissue plasminogen activator; cited from earlier work
canine coronary artery = canine coronary artery electrolytic lesion model; cited from earlier work
rabbit = rabbit model of venous thrombosis; cited from earlier work
rat = details: arteriovenous shunt and venous stasis models; cited from earlier work
[1] = models of arterial and venous thrombosis; cited from earlier work
[2] = 3 pM human factor Xa, read-out: FXa 3 pM IC50
[3] = 30 pM human factor Xa, read-out: FxXa 30 pM IC50

T1 sequence (P00742 235-488 limits assumed): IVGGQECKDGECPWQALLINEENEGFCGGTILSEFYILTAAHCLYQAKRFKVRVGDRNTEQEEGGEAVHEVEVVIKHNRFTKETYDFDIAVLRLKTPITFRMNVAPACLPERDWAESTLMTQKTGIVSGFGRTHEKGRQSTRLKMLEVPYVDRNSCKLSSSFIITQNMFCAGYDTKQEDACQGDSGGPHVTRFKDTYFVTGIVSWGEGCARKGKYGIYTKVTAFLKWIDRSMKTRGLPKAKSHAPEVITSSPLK
T1 sequence (P00742 41-179 partner limits assumed): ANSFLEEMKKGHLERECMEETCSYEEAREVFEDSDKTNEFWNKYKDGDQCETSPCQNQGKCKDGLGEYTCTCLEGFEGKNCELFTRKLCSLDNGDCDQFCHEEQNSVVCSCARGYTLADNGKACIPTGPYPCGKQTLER

CS(=O)(=O)c1ccccc1-c1ccc(NC(=O)C2(NC(=O)Nc3ccc(Cl)cc3)CCCC2)cc1 [Example 1, 1-[3-(4-Chloro-phenyl)-ureido]-cyclopentanecarboxylic acid (2′-methanesulfonyl-biphenyl-4-yl)-amide]
IC50 (human factor Xa; [2]): 38 nM | PT Conc. 2X Prolong. (human plasma): 13.45 µM

rTAP: recombinant tick anticoagulant peptide, a protein or polypeptide factor Xa inhibitor (YNRLCIKPRDWIDECDSNEGGERAYFRNGKGGCDSFWICPEDHTGADYYSSYRDCFNACI; UniProt P17726 1-60, looked up)
clot lysis and reocclusion (dog): accelerate the recombinant tissue plasminogen activator mediated clot lysis and prevent acute reocclusion | thrombus mass and time to occlusion (canine coronary artery): reduce thrombus mass and time to occlusion | fibrin deposition (rabbit): reduce fibrin deposition

CC(=N)N1CC[C@H](Oc2ccc([C@H](Cc3ccc4ccc(C(=N)N)cc4c3)C(=O)O)cc2)C1 [DX9065a]
inhibition of thrombus formation (rat): inhibition of thrombus formation was achieved at doses that had little effect on APTT

NS(=O)(=O)c1ccccc1-c1ccc(NC(=O)C2(NC(=O)Nc3ccc(Cl)cn3)CC2)c(F)c1 [Example 6, 1-[3-(5-Chloro-pyridin-2-yl)-ureido]-cyclopropanecarboxylic acid (3-fluoro-2′-sulfamoyl-biphenyl-4-yl)-amide]
IC50 (human factor Xa; [3]): 192 nM

CS(=O)(=O)c1ccccc1-c1ccc(NC(=O)C2(NC(=O)Nc3ccc(Cl)cc3)CC2)cc1 [Example 2, 1-[3-(4-Chloro-phenyl)-ureido]-cyclopropanecarboxylic acid (2′-methanesulfonyl-biphenyl-4-yl)-amide]
IC50 (human factor Xa; [2]): 33 nM

COCCN(CC(=O)Nc1ccc(-c2ccccc2S(C)(=O)=O)cc1F)C(=O)Nc1ccc(Cl)cc1 [Example 24, 2-[3-(4-Chloro-phenyl)-1-(2-methoxy-ethyl)-ureido]-N-(3-fluoro-2′-methanesulfonyl-biphenyl-4-yl)-acetamide]
IC50 (human factor Xa; [3]): 26 nM

CS(=O)(=O)c1ccccc1-c1ccc(NC(=O)[C@@]2(NC(=O)Nc3ccc(Cl)cc3)C[C@@H]2CO)c(F)c1 [Example 20, (1R,2S)-1-[3-(4-Chloro-phenyl)-ureido]-2-hydroxymethyl-cyclopropanecarboxylic acid (3-fluoro-2′-methanesulfonyl-biphenyl-4-yl)-amide]
IC50 (human factor Xa; [3]): 35 nM

CS(=O)(=O)c1ccccc1-c1ccc(NC(=O)C2(NC(=O)Nc3ccc(Cl)cn3)CC2)c(F)c1 [Example 4, 1-[3-(5-Chloro-pyridin-2-yl)-ureido]-cyclopropanecarboxylic acid (3-fluoro-2′-methanesulfonyl-biphenyl-4-yl)-amide]
IC50 (human factor Xa; [3]): 255 nM

NS(=O)(=O)c1ccccc1-c1ccc(NC(=O)C(CO)(CO)NC(=O)Nc2ccc(Cl)cc2)cc1 [Example 15, 2-[3-(4-Chloro-phenyl)-ureido]-3-hydroxy-2-hydroxymethyl-N-(2′-sulfamoyl-biphenyl-4-yl)-propionamide]
IC50 (human factor Xa; [3]): 29 nM

CN(C(=O)NCC(=O)Nc1ccc(-c2ccccc2S(C)(=O)=O)cc1F)c1ccc(Cl)cc1 [Example 13, 2-[3-(4-Chloro-phenyl)-3-methyl-ureido]-N-(3-fluoro-2′-methanesulfonyl-biphenyl-4-yl)-acetamide]
FxXa 30 pM, % @ 1 μM (human factor Xa; 30 pM human factor Xa): 17% @ 1 μM

CN(C)CCN(CC(=O)Nc1ccc(-c2ccccc2S(C)(=O)=O)cc1F)C(=O)Nc1ccc(Cl)cc1 [Example 26, 2-[3-(4-Chloro-phenyl)-1-(2-dimethylamino-ethyl)-ureido]-N-(3-fluoro-2′-methanesulfonyl-biphenyl-4-yl)-acetamide]
FxXa 30 pM, % @ 1 μM (human factor Xa; 30 pM human factor Xa): 13.7% @ 1 μM

CS(=O)(=O)c1ccccc1-c1ccc(NC(=O)[C@]2(NC(=O)Nc3ccc(Cl)cc3)C[C@@H]2CO)c(F)c1 [Example 18, (1S,2S)-1-[3-(4-Chloro-phenyl)-ureido]-2-hydroxymethyl-cyclopropanecarboxylic acid (3-fluoro-2′-methanesulfonyl-biphenyl-4-yl)-amide]
IC50 (human factor Xa; [3]): 21 nM

CN(CC(=O)Nc1ccc(-c2ccccc2S(C)(=O)=O)cc1F)C(=O)N(C)c1ccc(Cl)cc1 [Example 14, 2-[3-(4-Chloro-phenyl)-1,3-dimethyl-ureido]-N-(3-fluoro-2′-methanesulfonyl-biphenyl-4-yl)-acetamide]
FxXa 30 pM, % @ 1 μM (human factor Xa; 30 pM human factor Xa): 18% @ 1 μM

O=C(Nc1ccc(Cl)cc1)N[C@]1(C(=O)Nc2ccc(N3CCCCC3=O)cc2F)C[C@@H]1CO [Example 21, (1R,2S)-1-[3-(4-Chloro-phenyl)-ureido]-2-hydroxymethyl-cyclopropanecarboxylic acid [2-fluoro-4-(2-oxo-piperidin-1-yl)-phenyl]-amide]
IC50 (human factor Xa; [3]): 140 nM

CC(C)(NC(=O)Nc1ccc(Cl)cc1)C(=O)Nc1ccc(-c2ccccc2S(N)(=O)=O)cc1F [Example 9]
IC50 (human factor Xa; [3]): 44 nM

O=C(Nc1ccc(Cl)cc1)N[C@@]1(C(=O)Nc2ccc(N3CCCCC3=O)cc2F)C[C@@H]1CO [Example 19, (1S,2S)-1-[3-(4-Chloro-phenyl)-ureido]-2-hydroxymethyl-cyclopropanecarboxylic acid [2-fluoro-4-(2-oxo-piperidin-1-yl)-phenyl]-amide]
IC50 (human factor Xa; [3]): 129 nM

CC(C)CN(CC(=O)Nc1ccc(-c2ccccc2S(C)(=O)=O)cc1F)C(=O)Nc1ccc(Cl)cc1 [Example 25, 2-[3-(4-Chloro-phenyl)-1-isobutyl-ureido]-N-(3-fluoro-2′-methanesulfonyl-biphenyl-4-yl)-acetamide]
IC50 (human factor Xa; [3]): 105 nM

B1: Antistasin: a potent inhibitor of blood coagulation factor Xa from the Mexican leech, Haementeria officinalis (protein, UniProt P15358 18-136, looked up)
Antistasin: QGPFGPGCEEAGCPEGSACNIITDRCTCSGVRCRMHCPHGFQRSRYGCEFCKCRLEPMKATCDISECPEGMMCSRLTNKCDCKIDINCRKTCPNGLKRDKLGCEYCECRPKRKLIPRLS
antithrombotic activity [1]: displays antithrombotic activity
